Six molecules from patent US20070059376A1, “Peptide conjugate” (priority 2003, published 2007) can be followed below.

Groups on a side chain read outwards from the residue. No end group written: not given here. Glu2C18 = not defined here

Data set [1] addresses T1, GPIIb/IIIa on resting platelets (UniProt P08514 32-1039; P05106 27-788, limits assumed).
T1 construct: whole, on cells; also called resting GPIIb/IIIa; normal platelets
Nature of the data set: flow cytometry, fluorescence-labeled antibody on platelets, PBS added. On the technique in general: A flow cytometer gives signals particle by particle.

Data set [2] addresses T1, GPIIb/IIIa on resting platelets. As to the kind of experiment: flow cytometry, fluorescence-labeled antibody on platelets, H12-PEG(PEG) vesicles added.
Data set [3] shares this target. As to the kind of experiment: flow cytometry, fluorescence-labeled antibody on platelets, PEG vesicles added.
Data set [4] concerns platelets. Nature of the data set: Aggregation test with platelets, latex beads as carrier: platelet adhesion on collagen-immobilized surface under flow in thrombocytopenia model blood. Type of data set: cell-based. Particulars: after 180 seconds. On the procedure: (§1) A thrombocytopenia model blood was prepared by passing whole blood-through a leukocyte removing filter for leukocyte depleted preparations (NEOIJ, Nihon Pall) by gravity, and adjusting the platelet concentration to 2.0×10^4/μl by adding platelet rich plasma (PRP) (an automatic blood cell counter K-4500, Sysmex, Kobe).
(§2) H12-LB (1.0×10^5 particles/μl) was added to 5 ml of the thrombocytopenia model blood, allowed to stand (37° C., 10 min), flowed on a collagen-immobilized surface using a pump (rate of shear 150 s^−1), and then observed under a fluorescence microscope or through a CCD camera. An adhesion occupying ratio [surface coverage (hereinafter referred to as “SC”)] of micro particles to each surface was measured using an image analyzer (Argus-50, Hamamatsu Photonics).
Only platelets were subjected to fluorescence labeling [3,3′-dihexyloxacarbocyanine iodide (DiOC6)], and their adhesion behavior was periodically observed. As a result, SC of platelets on the surface increased with the lapse of time and was 3.1±0.4% after 180 seconds (FIG. 1: □, control). […] Thus, when H12-LB was added instead of LB, the platelet adhesion was further amplified than the case of the LB addition, and was 5.1±0.3% after 180 seconds, or amplified about 1.7 times than the control (FIG. 1: ∘).

The subject of data set [5] is resting platelets. As to the kind of experiment: Binding test to resting platelets (flow cytometry aggregation ratio). The settings on record: resting platelets 2.0×10^4/μl, beads 1.0×10^5/μl, 37° C., 30 min. Type of data set: cell-based. How it is done:
Resting platelets (2.0×10^4/μl) were mixed with 1.0×10^5/μl of each of LB, H12-LB and CGGRGDF-LB [LB bound with a peptide having an RGD sequence (Arg-Gly-Asp)], followed by shaking (37° C., 30 min), and the aggregation ratio in each case was evaluated by flow cytometry. […] Based on this, it was confirmed that H12-LB hardly agglutinate to resting platelets when compared with CGGRGDF-LB.

The subject of data set [6] is platelets activated by adhering to collagen. As to the kind of experiment: Adhesion behavior of FITC-labeled latex beads on collagen-immobilized surface under flow in thrombocytopenia model blood. The data set is classed as cell-based. On the procedure:
as §1, §2
In addition, the number of H12-LB bound to the surface was inhibited when the platelet concentration was 0.2×10^4/μl (FIG. 2: •), and were hardly seen in the case of LB (FIG. 2: □).

The test system of data set [7] is platelets. Nature of the data set: Aggregation test with platelets, vesicles as carrier: platelet adhesion on collagen surface under flow in thrombocytopenic blood. The settings on record: for SC of platelets (%): thrombocytopenic blood, platelets 5.0×10^4/μl, collagen surface, shear 150 s^-1, H12-PEG-Glu2C18 0.3 mol %. The data set is classed as cell-based. How it is done:
Platelets were fluorescence-labeled with DiOC6, and the H12-PEG(PEG) vesicle (1.5 wt %, 200 μl) was added to 5 ml of the thrombocytopenic blood ([platelets]=5.0×10^4/μl), allowed to stand (37° C., 10 min), allowed to flow on the collagen surface at a rate of shear of 150 s^−1, and then observed under a fluorescence microscope. The SC of platelets on the surface was analyzed by Argus-20. When H12-PEG vesicle (H12-PEG-Glu2C18: 0.3 mol %) or PEG vesicle was added to the thrombocytopenic blood ([platelets]=5.0×10^4/μl) and allowed to flow on the collagen surface, the SC was increased in the H12-PEG vesicle-added system, in comparison with the PEG vesicle-added system (Table 1).

Data set [8] has as its system platelets. Nature of the data set: Interaction with platelets, vesicles as carrier (flow cytometry, PAC-1 and vesicle binding). The data set is classed as cell-based. The settings on record: thrombocytopenia plasma, platelets 5.0×10^4/μl, 30 min, 37° C. How it is done: After 80 μl of thrombocytopenia plasma ([platelets]=5.0×10^4/μl) was prepared, fluorescence-labeled H12-PEG(PEG) vesicles (8.2 μM, 20 μl) or a fluorescence-labeled antibody and H12-PEG(PEG) vesicles (0.082 μM, 20 μl) were added thereto, followed by stirring (30 min, 37° C.). The mixture was subsequently subjected to formaldehyde (3.7%) fixation, diluted 10 times and then measured using flow cytometry.

Data set [9] can be described thus: Retention of H12-PEG-Glu2C18 in phospholipid vesicles (1H-NMR molar ratio after shaking). Type of data set: physicochemical. Particulars: diluted 30 times with PBS, shaken at 37° C. for 12 hours. How it is done:
In this connection, the prepared phospholipid vesicles (H12-PEG vesicles, 1.8 wt %) were diluted 30 times with PBS and shaken at 37° C. for 12 hours, and then the vesicles were precipitated by centrifugation (33000 rpm, 1 h) and dispersed, followed by freeze drying, and the resulting powder was subjected to ^1H-NMR measurement.

For data set [10], the target named is T1, GPIIb/IIIa on resting platelets. As to the kind of experiment: flow cytometry, beads (1.0×10^5/µl) mixed with resting platelets (2.0×10^4/µl), 37° C., 30 min. On the procedure:
Resting platelets (2.0×10⁴/μl) were mixed with 1.0×10⁵/μl of each of LB, H12-LB and CGGRGDF-LB [LB bound with a peptide having an RGD sequence (Arg-Gly-Asp)], followed by shaking (37° C., 30 min), and the aggregation ratio in each case was evaluated by flow cytometry. […] Based on this, it was confirmed that H12-LB hardly agglutinate to resting platelets when compared with CGGRGDF-LB.

T1 sequence (P08514 32-1039 limits assumed, chain 1 of 2): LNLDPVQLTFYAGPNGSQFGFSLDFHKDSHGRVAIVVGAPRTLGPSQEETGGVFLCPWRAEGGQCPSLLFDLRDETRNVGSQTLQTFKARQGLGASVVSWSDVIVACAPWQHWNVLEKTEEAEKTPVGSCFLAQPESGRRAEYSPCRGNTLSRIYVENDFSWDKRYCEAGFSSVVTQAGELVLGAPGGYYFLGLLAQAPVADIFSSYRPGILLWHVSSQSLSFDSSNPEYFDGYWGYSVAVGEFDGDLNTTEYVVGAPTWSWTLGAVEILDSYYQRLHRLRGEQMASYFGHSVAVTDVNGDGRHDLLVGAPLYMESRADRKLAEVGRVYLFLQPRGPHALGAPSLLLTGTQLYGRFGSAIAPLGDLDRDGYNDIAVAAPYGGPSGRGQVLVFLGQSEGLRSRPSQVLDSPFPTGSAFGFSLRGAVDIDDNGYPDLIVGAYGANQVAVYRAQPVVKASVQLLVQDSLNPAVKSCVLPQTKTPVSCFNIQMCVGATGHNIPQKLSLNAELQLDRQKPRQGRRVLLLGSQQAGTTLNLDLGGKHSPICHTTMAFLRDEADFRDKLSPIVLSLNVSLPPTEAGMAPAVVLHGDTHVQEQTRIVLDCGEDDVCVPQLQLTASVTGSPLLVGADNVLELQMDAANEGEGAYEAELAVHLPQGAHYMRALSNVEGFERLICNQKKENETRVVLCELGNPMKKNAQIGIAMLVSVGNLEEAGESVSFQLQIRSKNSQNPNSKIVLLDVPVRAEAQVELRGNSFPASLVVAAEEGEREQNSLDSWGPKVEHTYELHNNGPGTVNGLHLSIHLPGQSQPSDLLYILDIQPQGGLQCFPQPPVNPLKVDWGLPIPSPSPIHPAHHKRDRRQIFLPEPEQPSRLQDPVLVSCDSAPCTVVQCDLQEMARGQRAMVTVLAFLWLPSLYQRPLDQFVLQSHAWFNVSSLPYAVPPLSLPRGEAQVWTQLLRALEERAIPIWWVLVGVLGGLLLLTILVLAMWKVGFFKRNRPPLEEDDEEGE
T1 sequence (P05106 27-788 limits assumed, chain 2 of 2): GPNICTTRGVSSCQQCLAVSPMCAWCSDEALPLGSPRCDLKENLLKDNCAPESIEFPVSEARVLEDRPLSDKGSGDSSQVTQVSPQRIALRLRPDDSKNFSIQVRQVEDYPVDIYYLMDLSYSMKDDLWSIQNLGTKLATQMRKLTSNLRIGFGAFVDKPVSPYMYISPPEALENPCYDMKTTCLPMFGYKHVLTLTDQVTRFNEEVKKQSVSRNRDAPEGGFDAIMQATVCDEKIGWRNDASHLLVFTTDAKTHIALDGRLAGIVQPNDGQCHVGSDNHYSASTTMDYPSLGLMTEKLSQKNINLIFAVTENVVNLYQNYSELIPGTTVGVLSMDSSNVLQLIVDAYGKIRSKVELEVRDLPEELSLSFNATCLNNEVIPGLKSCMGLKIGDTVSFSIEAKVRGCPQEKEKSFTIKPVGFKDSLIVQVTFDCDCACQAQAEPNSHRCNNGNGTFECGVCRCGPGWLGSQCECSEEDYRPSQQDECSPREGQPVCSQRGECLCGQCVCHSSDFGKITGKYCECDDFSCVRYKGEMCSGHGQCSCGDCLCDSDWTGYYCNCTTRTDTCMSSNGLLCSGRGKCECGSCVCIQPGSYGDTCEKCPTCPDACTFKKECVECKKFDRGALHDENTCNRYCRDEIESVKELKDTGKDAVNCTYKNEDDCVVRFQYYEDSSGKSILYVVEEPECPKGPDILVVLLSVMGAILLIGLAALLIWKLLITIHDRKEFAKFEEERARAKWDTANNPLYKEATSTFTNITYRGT

In the case of PAC-1 (antibody), the PAC-1 binding (%) stood at 3.8% in [1], 3.7% in data set [2] and 3.4% in data set [3].

On to “H12-LB: Dodecapeptide H12 (SEQ ID NO: 1, via Cys and SPDP linker) coupled to rHSA-adsorbed latex beads of 1 μm diameter (CHHLGGAKQAGDV; cyclised or stapled)”, for which the “amplification of platelet adhesion versus control (LB)” value in [4] is recorded as “about 1.7 times”. Further, the “SC (surface coverage) of platelets on collagen surface” value in data set [4] (shear 150 s^-1, platelets 2.0×10^4/μl, beads 1.0×10^5 particles/μl, DiOC6-labeled platelets) was found to be 5.1±0.3%. Further, the “aggregation ratio with resting platelets” value in [5] is given as “did not show increase”. In addition, the “number of beads bound to collagen surface” value in [6] (platelet concentration 0.2×10^4/μl (FIG. 2)) is given as “inhibited”. The “SC of FITC-labeled beads bound to collagen surface” value in [6] (platelets 2.0×10^4/μl, shear 150 s^-1 (FIG. 2)) is “gradually increased”.

For the molecule “H12-PEG(PEG) vesicle: DPPC/cholesterol vesicle containing PEG-Glu2C18 and H12-PEG-Glu2C18 (CHHLGGAKQAGDV-OH; not fully specified (residue 1))”, the “SC of platelets on collagen surface” value in data set [7] (H12-PEG-Glu2C18 modification ratio 0.1 mol % or less (FIG. 6)) is “almost the same as the case of PEG vesicle”; in data set [7] (H12-PEG-Glu2C18 modification ratio 0.3 mol % or more (FIG. 6)), “the effect appears”. The “SC of platelets (%)” value in data set [7] worked out at 17.3 ± 1.9%. In addition, the “PAC-1 binding (%)” value in [8] (fluorescence-labeled antibody with vesicles) is reported as 3.7 ± 0.4%. The “vesicle binding (%)” value in data set [8] (fluorescence-labeled vesicles) was 1.4 ± 0.6%.

“H12-PEG vesicle: DPPC/cholesterol vesicle containing H12-PEG-Glu2C18 alone (C([MAL‑PEG3400-Glu2C18])HHLGGAKQAGDV-OH; not fully specified; reading uncertain)”: in data set [9], the “stability: retention of H12-PEG-Glu2C18 in vesicles (molar ratio of DPPC, cholesterol and H12-PEG-Glu2C18)” value was “not released from the phospholipid vesicles but stably maintained”. Further, the “SC of platelets (%)” value in [7] was determined as 15.0 ± 5.0%.

Consider “CGGRGDF-LB: LB bound with a peptide having an RGD sequence (Arg-Gly-Asp) (also: bound to latex beads (LB)) [reference compound]”, for which the “aggregation ratio with resting platelets” value in data set [5] stood at 2.9 ± 1.3%.

As for CGGRGDF (also: bound to latex beads, coupling chemistry not described, Comparison conjugate) [CGGRGDF-LB [LB bound with a peptide having an RGD sequence (Arg-Gly-Asp)]], the aggregation ratio in [10] came out at 2.9%.
